From PubChem BioAssay AID248 (DTP/NCI, 2004) come the findings set out here.

For this test, the system named is L1210 leukemia ip in BDF1 mice, survival T/C. Put plainly: NCI In Vivo Anticancer Drug Screen. Data for tumor model L1210 Leukemia (intraperitoneal) in B6D2F1 (BDF1) mice. The note with it: endpoint: mean survival time, higher = longer survival. The essentials:
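Each compound was tested against a transplantable tumor grown in mice. The endpoint was survival, with treated animals benchmarked against vehicle controls as a simple ratio.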

The mark [1] stands for this setting: dose: 100.0 mg/kg/injection, schedule: Q01DX009 (ip), vehicle: saline with Tween-80.
[2] abbreviates: dose: 200.0 mg/kg/injection, schedule: Q01DX009 (ip), vehicle: saline with Tween-80.
The mark [3] stands for this setting: dose: 400.0 mg/kg/injection, schedule: Q01DX009 (ip), vehicle: saline with Tween-80.
Where [4] appears, read: dose: 100.0 mg/kg/injection, schedule: Q01DX009 (ip), vehicle: Klucel (hydroxypropylcellulose) (HPC).
Setting [5] is: dose: 200.0 mg/kg/injection, schedule: Q01DX009 (ip), vehicle: Klucel (hydroxypropylcellulose) (HPC).
[6] abbreviates: dose: 400.0 mg/kg/injection, schedule: Q01DX009 (ip), vehicle: Klucel (hydroxypropylcellulose) (HPC).

Where “and” joins values, the source holds several entries; their conditions need not be identical. Equal entries are not always repeated. Inconclusive results and toxic doses are left out.

`O=C(Nc1ccc(C2=NCCN2)cc1)Nc1cccc(NC(=O)Nc2ccc(C3=NCCN3)cc2)c1`: the T/C is 119 % of control (dose: 7.5 mg/kg/injection, schedule: Q01DX Z (ip), vehicle: carboxymethylcellulose (CMC)); 180 % of control (dose: 7.5 mg/kg/injection, schedule: Q#A X Z (ip), vehicle: carboxymethylcellulose (CMC)); 189 % of control (dose: 15.0 mg/kg/injection, schedule: Q01DX Z (ip), vehicle: carboxymethylcellulose (CMC)); 215 % of control (dose: 15.0 mg/kg/injection, schedule: Q#A X Z (ip), vehicle: carboxymethylcellulose (CMC)); 122 % of control (dose: 22.5 mg/kg/injection, schedule: Q03DX Z (ip), vehicle: carboxymethylcellulose (CMC)); 206 % of control and 227 % of control and 315 % of control (dose: 30.0 mg/kg/injection, schedule: Q01DX Z (ip), vehicle: carboxymethylcellulose (CMC)). The T/C is 101 % of control and 107 % of control (dose: 30.0 mg/kg/injection, schedule: Q01DX Z (sc), vehicle: carboxymethylcellulose (CMC)); 220 % of control (dose: 30.0 mg/kg/injection, schedule: Q#A X Z (ip), vehicle: carboxymethylcellulose (CMC)); 92 % of control (dose: 60.0 mg/kg/injection, schedule: Q01DX004 (im), vehicle: olive oil, sesame oil, peanut oil); 216 % of control and 255 % of control and 337 % of control (dose: 60.0 mg/kg/injection, schedule: Q01DX Z (ip), vehicle: carboxymethylcellulose (CMC)); 97 % of control and 102 % of control (dose: 60.0 mg/kg/injection, schedule: Q01DX Z (sc), vehicle: carboxymethylcellulose (CMC)); 234 % of control (dose: 60.0 mg/kg/injection, schedule: Q#A X Z (ip), vehicle: carboxymethylcellulose (CMC)). The T/C is, setting by setting: (dose: 62.5 mg/kg/injection, schedule: Q## X009 (oral), vehicle: saline) 98 % of control; (dose: 74.0 mg/kg/injection, schedule: Q01DX Z (ip), vehicle: carboxymethylcellulose (CMC)) 280 % of control; (dose: 90.0 mg/kg/injection, schedule: Q03DX Z (ip), vehicle: carboxymethylcellulose (CMC)) 227 % of control; (dose: 120.0 mg/kg/injection, schedule: Q01DX004 (im), vehicle: olive oil, sesame oil, peanut oil) 102 % of control; (dose: 120.0 mg/kg/injection, schedule: Q01DX Z (ip), vehicle: carboxymethylcellulose (CMC)) 225 % of control and 234 % of control and 331 % of control; (dose: 120.0 mg/kg/injection, schedule: Q01DX Z (oral), vehicle: carboxymethylcellulose (CMC)) 98 % of control. For the same molecule, the T/C (dose: 120.0 mg/kg/injection, schedule: Q01DX Z (sc), vehicle: carboxymethylcellulose (CMC)) was 101 % of control and 104 % of control; the T/C (dose: 120.0 mg/kg/injection, schedule: Q#A X Z (ip), vehicle: carboxymethylcellulose (CMC)) was 218 % of control; the T/C (dose: 125.0 mg/kg/injection, schedule: Q## X010 (oral), vehicle: saline) is 95 % of control; the T/C (dose: 148.0 mg/kg/injection, schedule: Q01DX Z (ip), vehicle: carboxymethylcellulose (CMC)) was 271 % of control; the T/C (dose: 180.0 mg/kg/injection, schedule: Q03DX Z (ip), vehicle: carboxymethylcellulose (CMC)) was 265 % of control; the T/C (dose: 210.0 mg/kg/injection, schedule: Q07DX Z (ip), vehicle: carboxymethylcellulose (CMC)) is 194 % of control. In addition, the T/C (dose: 222.0 mg/kg/injection, schedule: Q01DX Z (ip), vehicle: carboxymethylcellulose (CMC)) was 204 % of control; the T/C (dose: 240.0 mg/kg/injection, schedule: Q01DX004 (im), vehicle: olive oil, sesame oil, peanut oil) was 101 % of control; the T/C (dose: 240.0 mg/kg/injection, schedule: Q01DX Z (ip), vehicle: carboxymethylcellulose (CMC)) was 223 % of control and 260 % of control and 309 % of control; the T/C (dose: 240.0 mg/kg/injection, schedule: Q01DX Z (oral), vehicle: carboxymethylcellulose (CMC)) was 97 % of control; the T/C (dose: 240.0 mg/kg/injection, schedule: Q01DX Z (sc), vehicle: carboxymethylcellulose (CMC)) is 95 % of control and 105 % of control; the T/C (dose: 240.0 mg/kg/injection, schedule: Q#A X Z (ip), vehicle: carboxymethylcellulose (CMC)) was 182 % of control. The T/C was 102 % of control (dose: 250.0 mg/kg/injection, schedule: Q## X010 (oral), vehicle: saline); 172 % of control (dose: 300.0 mg/kg/injection, schedule: Q01DX001 (ip), vehicle: carboxymethylcellulose (CMC)); 178 % of control (dose: 333.0 mg/kg/injection, schedule: Q01DX Z (ip), vehicle: carboxymethylcellulose (CMC)); 253 % of control (dose: 360.0 mg/kg/injection, schedule: Q03DX Z (ip), vehicle: carboxymethylcellulose (CMC)); 190 % of control (dose: 420.0 mg/kg/injection, schedule: Q07DX Z (ip), vehicle: carboxymethylcellulose (CMC)); 106 % of control (dose: 480.0 mg/kg/injection, schedule: Q01DX004 (im), vehicle: olive oil, sesame oil, peanut oil). In addition, the T/C (dose: 480.0 mg/kg/injection, schedule: Q01DX Z (ip), vehicle: carboxymethylcellulose (CMC)) was 177 % of control and 215 % of control; the T/C (dose: 480.0 mg/kg/injection, schedule: Q01DX Z (oral), vehicle: carboxymethylcellulose (CMC)) was 97 % of control; the T/C (dose: 480.0 mg/kg/injection, schedule: Q01DX Z (sc), vehicle: carboxymethylcellulose (CMC)) was 105 % of control and 108 % of control; the T/C (dose: 500.0 mg/kg/injection, schedule: Q01DX Z (ip), vehicle: carboxymethylcellulose (CMC)) is 156 % of control; the T/C (dose: 500.0 mg/kg/injection, schedule: Q## X009 (oral), vehicle: saline) was 98 % of control; the T/C (dose: 720.0 mg/kg/injection, schedule: Q03DX Z (ip), vehicle: carboxymethylcellulose (CMC)) was 252 % of control. Besides, the T/C is 227 % of control (dose: 840.0 mg/kg/injection, schedule: Q07DX Z (ip), vehicle: carboxymethylcellulose (CMC)); 97 % of control (dose: 960.0 mg/kg/injection, schedule: Q01DX Z (oral), vehicle: carboxymethylcellulose (CMC)); 231 % of control (dose: 1440.0 mg/kg/injection, schedule: Q03DX Z (ip), vehicle: carboxymethylcellulose (CMC)); 239 % of control (dose: 1680.0 mg/kg/injection, schedule: Q07DX Z (ip), vehicle: carboxymethylcellulose (CMC)); 98 % of control (dose: 1920.0 mg/kg/injection, schedule: Q01DX Z (oral), vehicle: carboxymethylcellulose (CMC)); 300 % of control (dose: 3360.0 mg/kg/injection, schedule: Q07DX Z (ip), vehicle: carboxymethylcellulose (CMC)).
`CCOC(=O)/C=C/Oc1cc(Cl)c(Cl)cc1Cl`: the T/C runs as follows: under setting [1], 110 % of control; under setting [2], 92 % of control; under setting [3], 93 % of control.
As for `O=C1CCC(c2ccccc2)=NN1c1ccccc1`, the T/C runs as follows: under setting [4], 96 % of control; under setting [5], 90 % of control; under setting [6], 96 % of control.
As to `Cc1cc(C)c(O)c(C)c1.[Hg]`, under “dose: 12.5 mg/kg/injection, schedule: Q01DX001 (ip), vehicle: Klucel (hydroxypropylcellulose) (HPC)”, the T/C is 87 % of control.
On to `C/C(CC(C)(C)c1ccccc1)=N/NC(N)=O`, for which the T/C is 104 % of control under setting [4] and 98 % of control under setting [5].
As to `CC(=O)COc1cccc(Cl)c1Cl`, the T/C was 98 % of control under setting [1], 95 % of control under setting [2] and 101 % of control under setting [3].
Consider `N#CCCSCCSCCC#N`, for which the T/C reads like this: under setting [4], 95 % of control; under setting [5], 97 % of control; under setting [6], 101 % of control.
As for `CCCCSP(=O)(N1CCCCC1)N1CCCCC1`, the T/C is 97 % of control (dose: 25.0 mg/kg/injection, schedule: Q04DX002 (ip), vehicle: saline with Tween-80); 97 % of control (dose: 50.0 mg/kg/injection, schedule: Q04DX002 (ip), vehicle: saline with Tween-80); 92 % of control and 94 % of control (dose: 100.0 mg/kg/injection, schedule: Q04DX002 (ip), vehicle: saline with Tween-80).
With `O=C1OC2(Cc3ccccc31)c1ccccc1-c1ccccc12`, the T/C by setting is: (dose: 25.0 mg/kg/injection, schedule: Q04DX003 (ip), vehicle: Klucel (hydroxypropylcellulose) (HPC)) 91 % of control; (dose: 50.0 mg/kg/injection, schedule: Q04DX003 (ip), vehicle: Klucel (hydroxypropylcellulose) (HPC)) 90 % of control; (dose: 100.0 mg/kg/injection, schedule: Q04DX003 (ip), vehicle: Klucel (hydroxypropylcellulose) (HPC)) 88 % of control; (dose: 200.0 mg/kg/injection, schedule: Q04DX003 (ip), vehicle: Klucel (hydroxypropylcellulose) (HPC)) 88 % of control; (dose: 400.0 mg/kg/injection, schedule: Q04DX003 (ip), vehicle: Klucel (hydroxypropylcellulose) (HPC)) 90 % of control.
Consider `CC(C)C/C=N/Nc1ccnc(SCc2ccccc2)n1`, for which the T/C is, setting by setting: (dose: 100.0 mg/kg/injection, schedule: Q04DX003 (ip), vehicle: DMSO) 95 % of control; (dose: 200.0 mg/kg/injection, schedule: Q04DX003 (ip), vehicle: DMSO) 103 % of control; (dose: 400.0 mg/kg/injection, schedule: Q04DX003 (ip), vehicle: DMSO) 95 % of control.
